Measurements from patent publication US12557545B2, “Compound and organic light emitting device comprising the same” (LG Chem, Ltd., priority 2020, dated 2026).

Test: Solubility experiment in cyclohexanone
Type: physicochemical
Details: dissolved in cyclohexanone (CHON) under normal temperature/pressure; whether 0.1 wt % or more was dissolved
Method: In order to confirm the solubility in the solvent used in the solution process of the compounds prepared in the Preparation Examples and the comparative compounds, each of them was dissolved in the solvent cyclohexanone (CHON) under normal temperature/pressure conditions, and it was confirmed whether 0.1 wt % or more was dissolved.

SMILES	Solvent CHON (solubility)
Cc1cccc(N(c2ccc3c4c5ccc6c(c5ccc4n(-c4ccccc4)c3c2)c2ccc(N(c3ccc(C(C)(C)C)cc3)c3ccc4c5c7ccc8c(c7ccc5n(-c5ccccc5)c4c3)c3ccc(N(c4cccc(C)c4)c4cccc5c4oc4ccccc45)cc3n8-c3ccccc3)cc2n6-c2ccccc2)c2cccc3c2oc2ccccc23)c1 [Compound 1]	◯ (0.1 wt. % or more soluble)
Cc1cccc(N(c2ccc3c4c5ccc6c(c5ccc4n(-c4ccccc4)c3c2)c2ccc(N(c3cccc(C)c3)c3cccc4c3oc3ccccc34)cc2n6-c2ccccc2)c2ccc3c4c5ccc6c(c5ccc4n(-c4ccccc4)c3c2)c2ccc(N(c3cccc(C)c3)c3cccc4c3oc3ccccc34)cc2n6-c2ccccc2)c1 [Compound 2]	◯ (0.1 wt. % or more soluble)
Cc1cccc(N(c2ccc3c4c5ccc6c(c5ccc4n(-c4ccccc4)c3c2)c2ccc(N(c3ccc4c5c7ccc8c(c7ccc5n(-c5ccccc5)c4c3)c3ccc(N(c4cccc(C)c4)c4cccc5c4oc4ccccc45)cc3n8-c3ccccc3)c3cccc4c3oc3ccccc34)cc2n6-c2ccccc2)c2cccc3c2oc2ccccc23)c1 [Compound 3]	◯ (0.1 wt. % or more soluble)
Cc1cccc(N(c2ccc3c4c5ccc6c(c5ccc4n(-c4ccccc4)c3c2)c2ccc(N(c3ccccc3)c3ccc4c5c7ccc8c(c7ccc5n(-c5ccccc5)c4c3)c3ccc(N(c4cccc(C)c4)c4cccc5c4oc4ccccc45)cc3n8-c3ccccc3)cc2n6-c2ccccc2)c2cccc3c2oc2ccccc23)c1 [Compound 4]	◯ (0.1 wt. % or more soluble)
Cc1cccc(N(c2ccc3c4c5ccc6c(c5ccc4n(-c4ccccc4)c3c2)c2ccc(N(c3ccc(-c4cc5ccccc5o4)cc3)c3ccc4c5c7ccc8c(c7ccc5n(-c5ccccc5)c4c3)c3ccc(N(c4cccc(C)c4)c4cccc5c4oc4ccccc45)cc3n8-c3ccccc3)cc2n6-c2ccccc2)c2cccc3c2oc2ccccc23)c1 [Compound 5]	◯ (0.1 wt. % or more soluble)
CC(C)(C)c1ccc(N(c2ccc(C(C)(C)C)cc2)c2ccc3c4c5ccc6c(c5ccc4n(-c4ccccc4)c3c2)c2ccc(N(c3ccc(C(C)(C)C)cc3)c3ccc4c5c7ccc8c(c7ccc5n(-c5ccccc5)c4c3)c3ccc(N(c4ccc(C(C)(C)C)cc4)c4ccc(C(C)(C)C)cc4)cc3n8-c3ccccc3)cc2n6-c2ccccc2)cc1 [Compound 6]	◯ (0.1 wt. % or more soluble)
CC(C)(C)c1ccc(N(c2ccc(C(C)(C)C)cc2)c2ccc3c4c5ccc6c(c5ccc4n(-c4ccccc4)c3c2)c2ccc(N(c3ccc4c5c7ccc8c(c7ccc5n(-c5ccccc5)c4c3)c3ccc(N(c4ccc(C(C)(C)C)cc4)c4ccc(C(C)(C)C)cc4)cc3n8-c3ccccc3)c3cccc4c3oc3ccccc34)cc2n6-c2ccccc2)cc1 [Compound 7]	◯ (0.1 wt. % or more soluble)
CC(C)(C)c1ccc(N(c2ccc(C(C)(C)C)cc2)c2ccc3c4c5ccc6c(c5ccc4n(-c4ccccc4)c3c2)c2ccc(N(c3ccc(-c4cc5ccccc5o4)cc3)c3ccc4c5c7ccc8c(c7ccc5n(-c5ccccc5)c4c3)c3ccc(N(c4ccc(C(C)(C)C)cc4)c4ccc(C(C)(C)C)cc4)cc3n8-c3ccccc3)cc2n6-c2ccccc2)cc1 [Compound 8]	◯ (0.1 wt. % or more soluble)
CC(C)(C)c1ccc(N(c2ccc3c4c5ccc6c(c5ccc4n(-c4ccccc4)c3c2)c2ccc(N(c3ccc(-c4ccc5c(c4)c4ccccc4n5-c4ccccc4)cc3)c3ccc4ccccc4c3)cc2n6-c2ccccc2)c2ccc3c4c5ccc6c(c5ccc4n(-c4ccccc4)c3c2)c2ccc(N(c3ccc(-c4ccc5c(c4)c4ccccc4n5-c4ccccc4)cc3)c3ccc4ccccc4c3)cc2n6-c2ccccc2)cc1 [Compound 9]	◯ (0.1 wt. % or more soluble)
CC(C)(C)c1ccc(N(c2ccc3c4c5ccc6c(c5ccc4n(-c4ccccc4)c3c2)c2ccc(N(c3ccccc3)c3ccc4cc(-c5cc7ccccc7o5)ccc4c3)cc2n6-c2ccccc2)c2ccc3c4c5ccc6c(c5ccc4n(-c4ccccc4)c3c2)c2ccc(N(c3ccccc3)c3ccc4cc(-c5cc7ccccc7o5)ccc4c3)cc2n6-c2ccccc2)cc1 [Compound 10]	◯ (0.1 wt. % or more soluble)

Continued, values first:

Solvent CHON (solubility)	SMILES
◯ (0.1 wt. % or more soluble)	CC(C)(C)c1ccc(N(c2ccc3c4c5ccc6c(c5ccc4n(-c4ccccc4)c3c2)c2ccc(N(c3ccccc3)c3ccccc3)cc2n6-c2ccccc2)c2ccc3c4c5ccc6c(c5ccc4n(-c4ccccc4)c3c2)c2ccc(N(c3ccccc3)c3ccccc3)cc2n6-c2ccccc2)cc1 [Compound 11]
◯ (0.1 wt. % or more soluble)	c1ccc(N(c2ccccc2)c2ccc3c4c5ccc6c(c5ccc4n(-c4ccccc4)c3c2)c2ccc(N(c3ccc4cc(-c5cc7ccccc7o5)ccc4c3)c3ccc4c5c7ccc8c(c7ccc5n(-c5ccccc5)c4c3)c3ccc(N(c4ccccc4)c4ccccc4)cc3n8-c3ccccc3)cc2n6-c2ccccc2)cc1 [Compound 12]
◯ (0.1 wt. % or more soluble)	CC(C)(C)c1ccc(N(c2ccc3c4c5ccc6c(c5ccc4n(-c4ccccc4)c3c2)c2ccc(N(c3ccccc3)c3ccc4ccccc4c3)cc2n6-c2ccccc2)c2ccc3c4c5ccc6c(c5ccc4n(-c4ccccc4)c3c2)c2ccc(N(c3ccccc3)c3ccc4ccccc4c3)cc2n6-c2ccccc2)cc1 [Compound 13]
◯ (0.1 wt. % or more soluble)	Cc1cccc(N(c2ccc3c4c5ccc6c(c5ccc4n(-c4ccccc4)c3c2)c2ccc(-c3ccc(-c4ccc5c7c8ccc9c(c8ccc7n(-c7ccccc7)c5c4)c4ccc(N(c5cccc(C)c5)c5cccc7c5oc5ccccc57)cc4n9-c4ccccc4)cc3)cc2n6-c2ccccc2)c2cccc3c2oc2ccccc23)c1 [Compound 14]
◯ (0.1 wt. % or more soluble)	Cc1cccc(N(c2ccc3c4c5ccc6c(c5ccc4n(-c4ccccc4)c3c2)c2ccc(-c3cccc(-c4ccc5c7c8ccc9c(c8ccc7n(-c7ccccc7)c5c4)c4ccc(N(c5cccc(C)c5)c5cccc7c5oc5ccccc57)cc4n9-c4ccccc4)c3)cc2n6-c2ccccc2)c2cccc3c2oc2ccccc23)c1 [Compound 15]
◯ (0.1 wt. % or more soluble)	Cc1cccc(N(c2ccc3c4c5ccc6c(c5ccc4n(-c4ccccc4)c3c2)c2ccc(-c3ccc4c5c7ccc8c(c7ccc5n(-c5ccccc5)c4c3)c3ccc(N(c4cccc(C)c4)c4cccc5c4oc4ccccc45)cc3n8-c3ccccc3)cc2n6-c2ccccc2)c2cccc3c2oc2ccccc23)c1 [Compound 16]
◯ (0.1 wt. % or more soluble)	Cc1cccc(N(c2ccc3c4c5ccc6c(c5ccc4n(-c4ccccc4)c3c2)c2ccc(Oc3ccc4c5c7ccc8c(c7ccc5n(-c5ccccc5)c4c3)c3ccc(N(c4cccc(C)c4)c4cccc5c4oc4ccccc45)cc3n8-c3ccccc3)cc2n6-c2ccccc2)c2cccc3c2oc2ccccc23)c1 [Compound 17]
◯ (0.1 wt. % or more soluble)	Cc1cccc(N(c2ccc3c(c2)c2c4ccc5c(c4ccc2n3-c2ccccc2)c2cc(N(c3ccc(C(C)(C)C)cc3)c3ccc4c(c3)c3c6ccc7c(c6ccc3n4-c3ccccc3)c3cc(N(c4cccc(C)c4)c4cccc6c4oc4ccccc46)ccc3n7-c3ccccc3)ccc2n5-c2ccccc2)c2cccc3c2oc2ccccc23)c1 [Compound 19]
◯ (0.1 wt. % or more soluble)	Cc1cccc(N(c2cccc3c2oc2ccccc23)c2cccc3c2c2c4ccc5c(c4ccc2n3-c2ccccc2)c2c(N(c3ccc(C(C)(C)C)cc3)c3cccc4c3c3c6ccc7c(c6ccc3n4-c3ccccc3)c3c(N(c4cccc(C)c4)c4cccc6c4oc4ccccc46)cccc3n7-c3ccccc3)cccc2n5-c2ccccc2)c1 [Compound 21]
X (0.1 wt. % or more insoluble)	CC1(C)c2cc(-c3cc4ccccc4o3)ccc2-c2ccc(N(c3ccccc3)c3ccc4c5c6ccc7c(c6ccc5n(-c5ccccc5)c4c3)c3ccc(N(c4ccccc4)c4ccc5c(c4)C(C)(C)c4cc(-c6cc8ccccc8o6)ccc4-5)cc3n7-c3ccccc3)cc21 [Compound J, reference compound]
